According to PubChem BioAssay (NCI):
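Protocol summary: plate cells (96-well), add compound at 5 concentrations, incubate 48 h, interpolate endpoints linearly. Abbreviation: GI50, concentration required for 50% inhibition of growth. TGI: total growth inhibition.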 Peptide text beside a SMILES is read from it. * marks the point of attachment. Boc = CC(C)(C)OC(=O)*

Legend:
Assay in all cases: inhibition of tumour cell growth, NCI panel, 48 h
[1] = test system: KM12 colon
[2] = test system: M14 melanoma
[3] = test system: IGROV1 ovarian
[4] = test system: UACC-257 melanoma
[5] = test system: SF-539 CNS
[6] = test system: HCC-2998 colon
[7] = test system: OVCAR-4 ovarian
[8] = test system: NCI-H522 lung
[9] = test system: OVCAR-3 ovarian
[10] = test system: HCT-15 colon
[11] = test system: RXF 393 renal
[12] = test system: SF-295 CNS
[13] = test system: BT-549 breast
[14] = test system: LOX IMVI melanoma
[15] = test system: RPMI-8226 leukemia
[16] = test system: A498 renal
[17] = test system: SN12C renal
[18] = test system: MCF7 breast
[19] = test system: SNB-19 CNS
[20] = test system: MDA-MB-435
[21] = test system: SK-MEL-28 melanoma
[22] = test system: OVCAR-8 ovarian
[23] = test system: DU-145 prostate
[24] = test system: SF-268 CNS
[25] = test system: HS 578T breast
[26] = test system: OVCAR-5 ovarian
[27] = test system: NCI-H23 lung
[28] = test system: UO-31 renal
[29] = test system: SK-MEL-2 melanoma
[30] = test system: A549 NSCLC
[31] = test system: HT29 colon
[32] = test system: MDA-MB-231 breast
[33] = test system: MOLT-4 leukemia
[34] = test system: U251 CNS
[35] = test system: TK-10 renal
[36] = test system: HCT-116 colon
[37] = test system: 786-0 renal
[38] = test system: HOP-92 NSCLC
[39] = test system: HL-60(TB) leukemia
[40] = test system: CCRF-CEM leukemia
[41] = test system: UACC-62 melanoma
[42] = test system: PC-3 prostate
[43] = test system: NCI-H226 lung
[44] = test system: MALME-3M melanoma
[45] = test system: CAKI-1 renal
[46] = test system: SW-620 colon
[47] = test system: NCI-H460 lung
[48] = test system: SK-MEL-5 melanoma
[49] = test system: ACHN renal
[50] = test system: SK-OV-3 ovarian
[51] = test system: EKVX NSCLC
[52] = test system: NCI/ADR-RES ovarian
[53] = test system: SNB-75 CNS
[54] = test system: K-562 leukemia
[55] = test system: HOP-62 NSCLC

With `COc1nn(C)cc1Nc1nccc(-c2c[nH]c3c(NC(=O)[C@@H](C)N4CCN(C)CC4)cccc23)n1` as the compound, how does the GI50 [1] read?
Its GI50 is 37.6 µM.

What about the TGI [1] of the same compound?
The TGI was > 100 µM.

What about the GI50 [2] of the same compound?
Its GI50 is 18.9 µM.

What about the TGI [2] of the same compound?
Its TGI is 41.2 µM.

And the GI50 [3]?
Its GI50 is 18.9 µM.

And the TGI [3]?
Its TGI is > 100 µM.

And the GI50 [4]?
Its GI50 is 27.7 µM.

What about the TGI [4] of the same compound?
The TGI was 78.7 µM.

What about the GI50 [5] of the same compound?
Its GI50 is 18 µM.

What about the TGI [5] of the same compound?
The TGI was 38.4 µM.

What about the GI50 [6] of the same compound?
Its GI50 is > 100 µM.

And the TGI [6]?
Its TGI is > 100 µM.

And the GI50 [7]?
Its GI50 is 47.9 µM.

What about the TGI [7] of the same compound?
The TGI was > 100 µM.

What about the GI50 [8] of the same compound?
Its GI50 is 43.2 µM.

What about the TGI [8] of the same compound?
The TGI was > 100 µM.

What about the GI50 [9] of the same compound?
The GI50 was 56.1 µM.

And the TGI [9]?
The TGI was > 100 µM.

What about the GI50 [10] of the same compound?
Its GI50 is 37.6 µM.

And the TGI [10]?
Its TGI is > 100 µM.

And the GI50 [11]?
The GI50 was 16.6 µM.

What about the TGI [11] of the same compound?
Its TGI is 42.2 µM.

And the GI50 [12]?
Its GI50 is 28 µM.

What about the TGI [12] of the same compound?
Its TGI is 99.4 µM.

And the GI50 [13]?
The GI50 was 22.5 µM.

And the TGI [13]?
The TGI was 72.9 µM.

And the GI50 [14]?
Its GI50 is 17.1 µM.

And the TGI [14]?
The TGI was 36.5 µM.

And the GI50 [15]?
The GI50 was 49.5 µM.

What about the TGI [15] of the same compound?
Its TGI is > 100 µM.

And the GI50 [16]?
The GI50 was 15.9 µM.

What about the TGI [16] of the same compound?
Its TGI is 45.2 µM.

And the GI50 [17]?
Its GI50 is 38.3 µM.

What about the TGI [17] of the same compound?
Its TGI is > 100 µM.

And the GI50 [18]?
The GI50 was 31.7 µM.

And the TGI [18]?
Its TGI is > 100 µM.

And the GI50 [19]?
Its GI50 is 75.6 µM.

And the TGI [19]?
Its TGI is > 100 µM.

And the GI50 [20]?
Its GI50 is 24.3 µM.

And the TGI [20]?
The TGI was 82.3 µM.

What about the GI50 [21] of the same compound?
Its GI50 is 53.9 µM.

What about the TGI [21] of the same compound?
The TGI was > 100 µM.

What about the GI50 [22] of the same compound?
Its GI50 is > 100 µM.

And the TGI [22]?
The TGI was > 100 µM.

And the GI50 [23]?
Its GI50 is 62.8 µM.

What about the TGI [23] of the same compound?
The TGI was > 100 µM.

And the GI50 [24]?
The GI50 was 36 µM.

And the TGI [24]?
The TGI was > 100 µM.

What about the GI50 [25] of the same compound?
The GI50 was 27 µM.

And the TGI [25]?
The TGI was > 100 µM.

And the GI50 [26]?
Its GI50 is 42.5 µM.

What about the TGI [26] of the same compound?
The TGI was > 100 µM.

And the GI50 [27]?
The GI50 was 40.5 µM.

What about the TGI [27] of the same compound?
The TGI was > 100 µM.

And the GI50 [28]?
The GI50 was 20.7 µM.

What about the TGI [28] of the same compound?
Its TGI is > 100 µM.

What about the GI50 [29] of the same compound?
The GI50 was 25 µM.

What about the TGI [29] of the same compound?
The TGI was 74.5 µM.

And the GI50 [30]?
Its GI50 is 44.3 µM.

And the TGI [30]?
The TGI was > 100 µM.

And the GI50 [31]?
Its GI50 is 29.4 µM.

And the TGI [31]?
Its TGI is > 100 µM.

What about the GI50 [32] of the same compound?
The GI50 was 34.9 µM.

And the TGI [32]?
The TGI was > 100 µM.

And the GI50 [33]?
Its GI50 is 37.8 µM.

And the TGI [33]?
Its TGI is > 100 µM.

And the GI50 [34]?
The GI50 was 43.7 µM.

And the TGI [34]?
Its TGI is > 100 µM.

And the GI50 [35]?
The GI50 was 44.1 µM.

What about the TGI [35] of the same compound?
Its TGI is > 100 µM.

What about the GI50 [36] of the same compound?
Its GI50 is 34.3 µM.

And the TGI [36]?
Its TGI is > 100 µM.

And the GI50 [37]?
The GI50 was 28.8 µM.

What about the TGI [37] of the same compound?
Its TGI is > 100 µM.

What about the GI50 [38] of the same compound?
Its GI50 is 41.7 µM.

What about the TGI [38] of the same compound?
The TGI was > 100 µM.

And the GI50 [39]?
The GI50 was 28.9 µM.

And the TGI [39]?
The TGI was > 100 µM.

And the GI50 [40]?
The GI50 was 40.4 µM.

And the TGI [40]?
Its TGI is > 100 µM.

What about the GI50 [41] of the same compound?
The GI50 was 40.6 µM.

And the TGI [41]?
Its TGI is > 100 µM.

And the GI50 [42]?
The GI50 was 51.2 µM.

What about the TGI [42] of the same compound?
Its TGI is > 100 µM.

And the GI50 [43]?
Its GI50 is 14.3 µM.

What about the TGI [43] of the same compound?
The TGI was > 100 µM.

And the GI50 [44]?
Its GI50 is 20.1 µM.

And the TGI [44]?
Its TGI is 73.1 µM.

What about the GI50 [45] of the same compound?
Its GI50 is 29.2 µM.

And the TGI [45]?
Its TGI is > 100 µM.

What about the GI50 [46] of the same compound?
The GI50 was 40.8 µM.

And the TGI [46]?
Its TGI is > 100 µM.

And the GI50 [47]?
The GI50 was 40.7 µM.

What about the TGI [47] of the same compound?
Its TGI is > 100 µM.

What about the GI50 [48] of the same compound?
The GI50 was 18.5 µM.

And the TGI [48]?
The TGI was 36.5 µM.

And the GI50 [49]?
Its GI50 is 37.6 µM.

And the TGI [49]?
The TGI was > 100 µM.

And the GI50 [50]?
Its GI50 is 44.2 µM.

And the TGI [50]?
Its TGI is > 100 µM.

What about the GI50 [51] of the same compound?
Its GI50 is 47 µM.

And the TGI [51]?
The TGI was > 100 µM.

What about the GI50 [52] of the same compound?
Its GI50 is 61.9 µM.

And the TGI [52]?
The TGI was > 100 µM.

And the GI50 [53]?
The GI50 was 16.2 µM.

And the TGI [53]?
Its TGI is 40.9 µM.

What about the GI50 [54] of the same compound?
Its GI50 is 29.2 µM.

And the TGI [54]?
The TGI was > 100 µM.

And the GI50 [55]?
The GI50 was 23.1 µM.

What about the TGI [55] of the same compound?
Its TGI is > 100 µM.

`CC(C)C(NC(=O)OC(C)(C)C)C(=O)N1CCCC1C(=O)O` (stereo not drawn) (Boc-Val-Pro-OH; configuration not given here) was tested. Which GI50 [25] did it give?
The GI50 was 36.1 µg/mL.

What about the GI50 [41] of the same compound?
Its GI50 is 94.1 µg/mL.
